These results are taken from patent US20130029981A1, “COMPOUNDS, COMPOSITIONS, AND METHODS FOR CONTROLLING BIOFILMS” (Katholieke Universiteit Leuven, priority 2009, published 2013).

In one assay the test system is S. Typhimurium ATCC14028. Briefly: Static peg assay for prevention of biofilm formation (Calgary device, crystal violet). The format is cell-based, Salmonella Typhimurium. The method, boiled down: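 Calgary 96-peg device, ca. 10^6 cells of ATCC14028 per well in TSB 1/20 for 24 h at 25° C (or 48 h at 16° C, medium and compound renewed at 24 h), or in CFA broth for 24 h at 37° C, static, with two-fold compound dilutions. Crystal violet stain, acetic acid extraction, OD570. IC50 from 2–3 independent experiments.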

In assay [1] the test system is Pseudomonas aeruginosa PA14. The description is as above. The class given is cell-based. How it is done:
(§1) Evaluation of the biofilm inhibitory activity of some substituted 2-amino-1H-imidazoles of the invention was carried out by growing up biofilms of S. Typhimurium ATCC14028 or SL1344 or Pseudomonas aeruginosa PA14 in the presence of different concentrations (1/2 dilution series) of biofilm inhibitors, by using the Calgary biofilm device. After an incubation period of 24 hours at 25° C. or 37° C. or 48 hours at 16° C. the biofilms were visualized by crystal violet staining. In the next step the stain was extracted from the biofilm with 30% acetic acid. The absorbance of the resolubilized stain at 570 nm is a measure of the amount of biofilm formed.
The device used for Pseudomonas aeruginosa biofilm formation is the same platform carrying polystyrene pegs as described above for Salmonella Typhimurium.
Two-fold serial dilutions of the compounds in 100 μl liquid broth per well were prepared in the microtiter plate. Subsequently, an overnight culture of P. aeruginosa PA14 (grown up in TSB medium) was diluted 1:100 into liquid broth and 100 μl was added to each well of the microtiter plates, resulting in a total amount of 200 μl medium per well. The pegged lid was placed on the microtiter plate and the plate was incubated for 24 hours at 25° C., 30° C. or 37° C. without shaking. During this incubation period biofilms were formed on the surface of the pegs. The liquid broth used for the tests at 25° C. was TSB 1/20. The tests at 37° C. were performed in CFA and/or LBNS broth. During incubation at 30° C. and 37° C. the plates were placed in a humidity controlled container to prevent evaporation of the growth medium. Quantification of biofilm formation was performed similarly as described previously for the S. Typhimurium biofilm assays.
as §1, with “imidazo[1,2-a]pyrimidinium bromide salts” for “2-amino-1H-imidazoles”
as §1, with “substituted imidazo[1,2-a]-pyrimidinium bromide and perchlorate salts produced according to examples 3 and 5” for “substituted 2-amino-1H-imidazoles of the invention”, “C.” for “C. or 37° C. or 48 hours at 16° C.”, “nm was taken as” for “nm is”

[2] abbreviates: S. Typhimurium ATCC 14028, 25° C., read-out: S. Typhimurium IC50 (biofilm formation).
The mark [3] stands for this setting: P. aeruginosa PA14, 25° C., read-out: P. aeruginosa IC50 (biofilm formation).
The mark [4] stands for this setting: Table 21, S. Typhimurium ATCC14028, 25° C., read-out: S. Typhimurium IC50 (biofilm formation).
The mark [5] stands for this setting: Table 21, P. aeruginosa PA14, 25° C., read-out: P. aeruginosa IC50 (biofilm formation).
[6] abbreviates: 25° C., Table 22, read-out: S. Typhimurium IC50 (biofilm formation).
[7] abbreviates: 25° C., Table 22, read-out: P. aeruginosa IC50 (biofilm formation).
The mark [8] stands for this setting: S. Typhimurium ATCC 14028, 25° C., read-out: IC50 for biofilm inhibition (25° C.).

Read-outs that look alike come from different tables or passages of the source. Bounds are passed on as bounds.

For `OC1(c2ccc(Cl)cc2)C[n+]2cccnc2N1C1CCCCCCCCCCC1` (stereo not shown) [Compound 67], the 50% inhibitory concentration (IC50) in the assay with S. Typhimurium ATCC14028 (25° C., Table 18, read-out: S. Typhimurium IC50 (biofilm formation)) amounted to 5.6 µM; in assay [1] (25° C., Table 18, read-out: P. aeruginosa IC50 (biofilm formation)), 6.8 µM.
As to `Nc1nc(-c2ccccc2)c[nH]1` [Compound 81], the IC50 turned out to be 130 µM with S. Typhimurium ATCC14028 (setting [2]) and 72.6 µM in assay [1] (setting [3]).
The corresponding values for `CC(C)Nc1nc(-c2ccccc2)c[nH]1` [Compound 82] are over 800 µM and 261 µM.
The corresponding values for `CCCCNc1nc(-c2ccccc2)c[nH]1` [Compound 83] are 25.3 µM and 31.8 µM.
Consider `CC(C)CNc1nc(-c2ccccc2)c[nH]1` [Compound 84], for which the IC50 worked out at 4.9 µM in the assay on S. Typhimurium ATCC14028 (setting [2]) and 1.2 µM in assay [1] (setting [3]).
The corresponding values for `Nc1nc(-c2ccc(Cl)cc2)c[nH]1` [Compound 85] are 16 µM and 3.5 µM.
Consider `CC(C)CNc1nc(-c2ccc(Cl)cc2)c[nH]1` [Compound 86], for which the results for the IC50 (with S. Typhimurium ATCC14028 (setting [2]); in assay [1] (setting [3])) were 2 µM and 0.9 µM, respectively.
For the compound `CCCCCNc1nc(-c2ccc(Cl)cc2)c[nH]1` [Compound 87], the results for the IC50 (in the assay with S. Typhimurium ATCC14028 (setting [2]); in assay [1] (setting [3])) were over 400 µM and about 6.35 µM, respectively.
For `CCCCCCCCNc1nc(-c2ccc(Cl)cc2)c[nH]1` [Compound 88], the results for the IC50 (in the assay with S. Typhimurium ATCC14028 (setting [2]); in assay [1] (setting [3])) were over 400 µM and about 1.6 µM, respectively.
The corresponding values for `CNc1nc(-c2ccc([N+](=O)[O-])cc2)c[nH]1` [Compound 91] are 170 µM and 56.1 µM.
The like results for `CCNc1ncc(-c2ccc([N+](=O)[O-])cc2)[nH]1` [Compound 92] were, in that order, 171 µM and 104 µM.
As for `CCCCNc1ncc(-c2ccc([N+](=O)[O-])cc2)[nH]1` [Compound 93], the figures for the IC50 (with S. Typhimurium ATCC14028 (setting [2]); in assay [1] (setting [3])) were 702 µM and over 800 µM, respectively.
The corresponding values for `CC(C)CNc1ncc(-c2ccc([N+](=O)[O-])cc2)[nH]1` [Compound 94] are 3.8 µM and 22.9 µM.
With `CCCCCCCCNc1ncc(-c2ccc([N+](=O)[O-])cc2)[nH]1` [Compound 95], the IC50 with S. Typhimurium ATCC14028 (setting [2]) was 10.9 µM; in assay [1] (setting [3]) it was about 25 µM.
The like results for `Nc1ncc(-c2ccc(F)cc2)[nH]1` [Compound 96] were, in that order, 84.4 µM and 15 µM.
Regarding `CNc1ncc(-c2ccc(F)cc2)[nH]1` [Compound 97], the IC50 in the assay on S. Typhimurium ATCC14028 (setting [2]) amounted to 102 µM; in assay [1] (setting [3]) it was 25.2 µM.
The corresponding values for `CCCCNc1ncc(-c2ccc(F)cc2)[nH]1` [Compound 98] are 15.5 µM and 10.8 µM.
On to `CCCCCCNc1ncc(-c2ccc(F)cc2)[nH]1` [Compound 99], for which the IC50 in the assay on S. Typhimurium ATCC14028 (setting [2]) is over 400 µM; in assay [1] (setting [3]), about 12.5 µM.
For the compound `CCCCCCCCNc1ncc(-c2ccc(F)cc2)[nH]1` [Compound 100], the figures for the half-inhibitory concentration (IC50) (in the assay with S. Typhimurium ATCC14028 (setting [2]); in assay [1] (setting [3])) were over 400 µM and about 3.1 µM, respectively.
Regarding `Nc1ncc(-c2ccc(Br)cc2)[nH]1` [Compound 101], the figures for the concentration for half-maximal inhibition (IC50) (in the assay on S. Typhimurium ATCC14028 (setting [2]); in assay [1] (setting [3])) were 47.9 µM and 3.2 µM, respectively.
The like results for `CCCCNc1ncc(-c2ccc(Br)cc2)[nH]1` [Compound 102] were, in that order, 7.1 µM and 9.8 µM.
The corresponding values for `CC(C)CNc1ncc(-c2ccc(Br)cc2)[nH]1` [Compound 103] are 2.9 µM and 1.2 µM.
The like results for `CCCCCNc1ncc(-c2ccc(Br)cc2)[nH]1` [Compound 104] were, in that order, 3.1 µM and 10.2 µM.
Take `CCCCCCCCNc1ncc(-c2ccc(Br)cc2)[nH]1` [Compound 105]: the half-maximal inhibitory concentration (IC50) in the assay with S. Typhimurium ATCC14028 (setting [2]) was 1.9 µM; in assay [1] (setting [3]), over 800 µM.
The corresponding values for `COc1ccc(-c2cnc(N)[nH]2)cc1` [Compound 106] are 120 µM and 186 µM.
The like results for `CCCCNc1ncc(-c2ccc(OC)cc2)[nH]1` [Compound 107] were, in that order, 52.6 µM and 46.3 µM.
Take `CCCCCCCCNc1ncc(-c2ccc(OC)cc2)[nH]1` [Compound 108]: the 50% inhibitory concentration (IC50) is about 400 µM in the assay with S. Typhimurium ATCC14028 (setting [2]) and over 800 µM in assay [1] (setting [3]).
The corresponding values for `CCCNc1ncc(-c2ccc(Cl)c(Cl)c2)[nH]1` [Compound 109] are 10.9 µM and 27.7 µM.
On to `CCCCCCCCNc1ncc(-c2ccc(Cl)c(Cl)c2)[nH]1` [Compound 111], for which the half-inhibitory concentration (IC50) in the assay with S. Typhimurium ATCC14028 (setting [2]) is 118 µM; in assay [1] (setting [3]), over 800 µM.
`CS(=O)(=O)c1ccc(-c2cnc(N)[nH]2)cc1` [Compound 115]: the half-maximal inhibitory concentration (IC50) (in the assay with S. Typhimurium ATCC14028 (setting [2]); in assay [1] (setting [3])) was over 800 µM each time.
Regarding `CCCCCCCCNc1ncc(-c2ccc(S(C)(=O)=O)cc2)[nH]1` [Compound 116], the IC50 was 41.8 µM in the assay on S. Typhimurium ATCC14028 (setting [2]) and about 3.1 µM in assay [1] (setting [3]).
`Clc1ccc(-c2cnc(NC3CCCC3)[nH]2)cc1` [Compound 118]: the 50% inhibitory concentration (IC50) in the assay on S. Typhimurium ATCC14028 (setting [4]) worked out at 4.4 µM; in assay [1] (setting [5]), 13.5 µM.
For `O=[N+]([O-])c1ccc(-c2cnc(NC3CCCC3)[nH]2)cc1` [Compound 119], the IC50 came to 11.8 µM with S. Typhimurium ATCC14028 (setting [4]) and 20.2 µM in assay [1] (setting [5]).
With `Brc1ccc(-c2cnc(NC3CCCC3)[nH]2)cc1` [Compound 120], the results for the IC50 (in the assay on S. Typhimurium ATCC14028 (setting [4]); in assay [1] (setting [5])) were 12.1 µM and 7.2 µM, respectively.
The corresponding values for `Clc1ccc(-c2cnc(NC3CCCC3)[nH]2)cc1Cl` [Compound 121] are 5.7 µM and 7.9 µM.
With `Clc1ccc(-c2cnc(NC3CCCCC3)[nH]2)cc1` [Compound 122], the half-inhibitory concentration (IC50) with S. Typhimurium ATCC14028 (setting [4]) was over 800 µM; in assay [1] (setting [5]), about 25 µM.
The corresponding values for `O=[N+]([O-])c1ccc(-c2cnc(NC3CCCCC3)[nH]2)cc1` [Compound 123] are 36.7 µM and about 25 µM.
The corresponding values for `O=[N+]([O-])c1cccc(-c2cnc(NC3CCCCC3)[nH]2)c1` [Compound 124] are 630 µM and 4.4 µM.
Turning to `COc1ccc(-c2cnc(NC3CCCCC3)[nH]2)cc1` [Compound 125], the IC50 in the assay with S. Typhimurium ATCC14028 (setting [4]) is about 378 µM; in assay [1] (setting [5]), 54.8 µM.
The corresponding values for `CSc1ccc(-c2cnc(NC3CCCCC3)[nH]2)cc1` [Compound 126] are 191 µM and 15.8 µM.
Regarding `COc1ccc(CNc2ncc(-c3ccc([N+](=O)[O-])cc3)[nH]2)cc1` [Compound 128], the IC50 (with S. Typhimurium ATCC14028 (setting [6]); in assay [1] (setting [7])) was over 800 µM in each case.
On to `COc1cccc(CCNc2ncc(-c3ccc([N+](=O)[O-])cc3)[nH]2)c1` [Compound 129], for which the IC50 in the assay on S. Typhimurium ATCC14028 (setting [6]) worked out at 19.1 µM; in the assay on S. Typhimurium ATCC14028 (setting [8]), 15 µM; in assay [1] (setting [7]), 3.7 µM.
As for `COc1cccc(CCNc2ncc(-c3ccc(Cl)c(Cl)c3)[nH]2)c1` [Compound 130], the half-inhibitory concentration (IC50) (in the assay on S. Typhimurium ATCC14028 (setting [6]); in assay [1] (setting [7])) was over 800 µM throughout.
For `Fc1ccc(-c2cnc(NCc3ccc4c(c3)OCO4)[nH]2)cc1` [Compound 132], the values for the 50% inhibitory concentration (IC50) (with S. Typhimurium ATCC14028 (setting [6]); in the assay with S. Typhimurium ATCC14028 (setting [8]); in assay [1] (setting [7])) were 66.6 µM, 68 µM and 456 µM, respectively.
Turning to `c1ccc2c(-c3cnc(NCc4ccc5c(c4)OCO5)[nH]3)cccc2c1` [Compound 133], the IC50 came to 261 µM in the assay on S. Typhimurium ATCC14028 (Salmonella enterica, 25° C., Table 22, read-out: S. Typhimurium IC50 (biofilm formation)) and 10.5 µM in assay [1] (Pseudomonas aeruginosa, PA14, 25° C., Table 22, read-out: P. aeruginosa IC50 (biofilm formation)).
Take `CCCCNc1nc(-c2ccc(F)cc2)c[nH]1` [R1=H, R2=Butyl, R3=H, R4=p-F—Ph]: the half-inhibitory concentration (IC50) in the assay with S. Typhimurium ATCC14028 (setting [8]) came to 16 µM; in assay [1] (P. aeruginosa PA14, 25° C., read-out: IC50 for biofilm inhibition (25° C.)) it was 6 µM.
